Results: ChEMBL document CHEMBL1201862, “PubChem BioAssay data set” (2004)
The source made the active and inactive calls.

Columns and labels:
[1] = biological target: T1, Rac GTPase-activating protein 1 (Homo sapiens, UniProt Q9H0H5); assay: MgcRacGAP GTPase-activating activity inhibitors, confirmation, biochemical, ADP Hunter fluorescence, primary and confirmatory (AID 624330); type: functional
T1 sequence (Q9H0H5 whole entry): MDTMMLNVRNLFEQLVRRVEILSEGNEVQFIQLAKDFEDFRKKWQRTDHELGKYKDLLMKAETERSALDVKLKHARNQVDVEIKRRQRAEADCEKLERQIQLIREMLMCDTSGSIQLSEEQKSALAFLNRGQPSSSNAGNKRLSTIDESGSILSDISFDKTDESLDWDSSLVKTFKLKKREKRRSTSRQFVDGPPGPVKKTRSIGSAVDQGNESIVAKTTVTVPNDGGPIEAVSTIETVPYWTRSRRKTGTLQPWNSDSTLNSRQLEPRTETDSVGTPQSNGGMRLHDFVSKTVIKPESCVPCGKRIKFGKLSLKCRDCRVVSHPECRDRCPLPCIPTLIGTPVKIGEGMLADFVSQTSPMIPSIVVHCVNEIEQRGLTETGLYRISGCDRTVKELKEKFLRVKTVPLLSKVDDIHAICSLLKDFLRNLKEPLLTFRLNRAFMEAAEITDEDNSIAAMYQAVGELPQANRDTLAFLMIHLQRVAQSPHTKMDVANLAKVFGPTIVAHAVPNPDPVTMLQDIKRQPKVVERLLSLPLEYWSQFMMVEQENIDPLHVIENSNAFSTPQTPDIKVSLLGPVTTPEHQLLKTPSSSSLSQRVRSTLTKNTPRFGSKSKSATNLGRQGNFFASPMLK

[2] = biological target: Cytochrome P450 3A4 (Homo sapiens, UniProt P08684);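 also: CYP3A4 tested as one member of a cytochrome P450 panel screen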
[3] = biological target: T2, Corticotropin-releasing factor receptor 2/Corticotropin-releasing factor-binding protein (Homo sapiens, UniProt P24387+Q13324); assay: Dose Response confirmation of uHTS hits for small molecule antagonists of the CRF-binding protein and CRF-R2 receptor complex.; type: functional; settings: read-out: IC50_Mean
T2 sequence (Q13324 whole entry): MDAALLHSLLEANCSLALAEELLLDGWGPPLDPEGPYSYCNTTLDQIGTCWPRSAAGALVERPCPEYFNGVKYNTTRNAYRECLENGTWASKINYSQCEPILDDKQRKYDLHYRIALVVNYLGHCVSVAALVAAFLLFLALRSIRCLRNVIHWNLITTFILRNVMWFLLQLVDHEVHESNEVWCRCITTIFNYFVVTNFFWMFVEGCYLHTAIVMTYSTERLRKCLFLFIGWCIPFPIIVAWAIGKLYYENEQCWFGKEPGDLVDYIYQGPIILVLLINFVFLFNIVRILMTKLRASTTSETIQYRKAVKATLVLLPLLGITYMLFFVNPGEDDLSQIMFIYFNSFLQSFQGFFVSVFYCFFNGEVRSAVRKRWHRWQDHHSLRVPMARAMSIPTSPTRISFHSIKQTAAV
T2 sequence (P24387 whole entry): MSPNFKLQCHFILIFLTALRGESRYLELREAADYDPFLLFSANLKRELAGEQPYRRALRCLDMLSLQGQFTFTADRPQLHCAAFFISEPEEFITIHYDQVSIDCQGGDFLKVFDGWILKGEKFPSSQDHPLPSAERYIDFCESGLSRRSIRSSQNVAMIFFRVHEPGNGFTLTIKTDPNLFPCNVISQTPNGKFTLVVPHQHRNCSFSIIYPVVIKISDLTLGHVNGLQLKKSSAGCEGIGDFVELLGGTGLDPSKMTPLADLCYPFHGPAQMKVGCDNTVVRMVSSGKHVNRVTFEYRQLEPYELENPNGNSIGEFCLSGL

[4] = biological target: T2, Corticotropin-releasing factor receptor 2/Corticotropin-releasing factor-binding protein; assay: activators of CRF receptor 2 with binding protein – uHTS hits, confirmation (AID 602473); type: functional; settings: read-out: EC50_Mean
[5] = biological target: Cytochrome P450 2C9 (Homo sapiens, UniProt P11712)
[6] = biological target: Cytochrome P450 2C19 (Homo sapiens, UniProt P33261); assay: Cytochrome panel assay with activity outcomes. Panel member name: p450-cyp2c19 Compounds with AC50 equal or less than 10 uM are considered active; type: functional; settings: read-out: AC50
[7] = biological target: T3, Replicative DNA helicase DnaB (Mycobacterium tuberculosis, UniProt P9WMR3); assay: DnaB intein splicing inhibitors, dose response, biochemical, cell-free fluorescence (AID 449749); type: functional
T3 sequence (P9WMR3 whole entry): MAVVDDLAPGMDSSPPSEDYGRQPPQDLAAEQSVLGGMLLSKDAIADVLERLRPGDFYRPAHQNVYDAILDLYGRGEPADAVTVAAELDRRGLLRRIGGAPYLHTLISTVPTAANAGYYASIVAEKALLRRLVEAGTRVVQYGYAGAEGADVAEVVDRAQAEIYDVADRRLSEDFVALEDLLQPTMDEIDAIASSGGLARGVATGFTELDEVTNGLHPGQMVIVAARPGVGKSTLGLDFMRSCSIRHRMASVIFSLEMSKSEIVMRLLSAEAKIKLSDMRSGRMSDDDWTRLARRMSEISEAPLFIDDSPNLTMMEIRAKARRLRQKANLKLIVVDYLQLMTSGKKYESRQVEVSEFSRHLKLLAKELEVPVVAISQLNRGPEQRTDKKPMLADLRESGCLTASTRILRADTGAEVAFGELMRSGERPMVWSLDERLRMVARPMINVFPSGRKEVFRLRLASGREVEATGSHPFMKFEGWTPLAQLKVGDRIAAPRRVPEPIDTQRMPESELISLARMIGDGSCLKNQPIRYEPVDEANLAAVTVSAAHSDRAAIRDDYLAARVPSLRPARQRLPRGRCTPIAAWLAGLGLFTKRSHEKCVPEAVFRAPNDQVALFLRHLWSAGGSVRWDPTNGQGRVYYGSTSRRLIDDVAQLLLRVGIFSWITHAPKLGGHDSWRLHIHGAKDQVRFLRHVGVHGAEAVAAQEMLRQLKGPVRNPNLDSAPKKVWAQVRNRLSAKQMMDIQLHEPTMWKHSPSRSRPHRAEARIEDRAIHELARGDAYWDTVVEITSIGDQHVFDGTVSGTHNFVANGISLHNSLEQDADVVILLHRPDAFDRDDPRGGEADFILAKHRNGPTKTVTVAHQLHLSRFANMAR

[8] = biological target: T4, Protein RecA (Mycobacterium tuberculosis, UniProt P9WHJ3); assay: Fluorescence Cell-Free Homogeneous Dose Retest to Identify Inhibitors of RecA-Intein Splicing Activity. [Related pubchem assays (depositor defined):AID2097, AID2223, AID489010, AID492950]; type: functional
T4 sequence (P9WHJ3 whole entry): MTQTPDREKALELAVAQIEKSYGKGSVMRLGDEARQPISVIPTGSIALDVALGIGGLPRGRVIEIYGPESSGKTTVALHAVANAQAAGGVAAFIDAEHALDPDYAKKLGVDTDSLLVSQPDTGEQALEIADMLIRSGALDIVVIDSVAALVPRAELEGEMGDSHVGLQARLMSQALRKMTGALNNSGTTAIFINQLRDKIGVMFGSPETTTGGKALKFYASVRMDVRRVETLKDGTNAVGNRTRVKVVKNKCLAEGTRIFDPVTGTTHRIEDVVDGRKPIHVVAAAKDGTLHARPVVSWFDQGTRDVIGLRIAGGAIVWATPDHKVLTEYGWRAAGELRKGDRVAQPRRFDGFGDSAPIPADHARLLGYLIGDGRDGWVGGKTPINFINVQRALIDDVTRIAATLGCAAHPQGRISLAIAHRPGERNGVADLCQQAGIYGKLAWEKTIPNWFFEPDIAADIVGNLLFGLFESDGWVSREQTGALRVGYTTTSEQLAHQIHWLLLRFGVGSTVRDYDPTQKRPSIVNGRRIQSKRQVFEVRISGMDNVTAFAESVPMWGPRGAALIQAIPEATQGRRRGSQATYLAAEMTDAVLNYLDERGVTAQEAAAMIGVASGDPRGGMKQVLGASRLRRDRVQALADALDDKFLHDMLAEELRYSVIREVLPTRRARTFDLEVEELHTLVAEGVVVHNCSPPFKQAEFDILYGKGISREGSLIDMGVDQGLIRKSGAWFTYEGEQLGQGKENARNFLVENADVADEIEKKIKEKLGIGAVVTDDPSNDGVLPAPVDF

Sequence of Cytochrome P450 3A4 (P08684 whole entry): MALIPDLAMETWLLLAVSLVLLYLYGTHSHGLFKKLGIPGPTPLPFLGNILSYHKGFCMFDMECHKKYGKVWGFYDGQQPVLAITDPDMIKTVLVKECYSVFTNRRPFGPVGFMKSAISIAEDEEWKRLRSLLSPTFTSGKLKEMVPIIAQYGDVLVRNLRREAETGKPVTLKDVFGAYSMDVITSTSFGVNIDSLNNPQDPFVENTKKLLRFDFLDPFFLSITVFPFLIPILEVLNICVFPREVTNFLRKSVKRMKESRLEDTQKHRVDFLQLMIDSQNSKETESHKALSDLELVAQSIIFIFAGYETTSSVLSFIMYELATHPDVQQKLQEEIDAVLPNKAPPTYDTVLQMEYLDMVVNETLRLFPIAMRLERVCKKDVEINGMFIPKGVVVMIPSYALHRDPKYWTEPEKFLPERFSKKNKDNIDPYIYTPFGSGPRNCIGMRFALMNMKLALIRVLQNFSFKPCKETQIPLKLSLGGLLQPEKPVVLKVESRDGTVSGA
Sequence of Cytochrome P450 2C9 (P11712 whole entry): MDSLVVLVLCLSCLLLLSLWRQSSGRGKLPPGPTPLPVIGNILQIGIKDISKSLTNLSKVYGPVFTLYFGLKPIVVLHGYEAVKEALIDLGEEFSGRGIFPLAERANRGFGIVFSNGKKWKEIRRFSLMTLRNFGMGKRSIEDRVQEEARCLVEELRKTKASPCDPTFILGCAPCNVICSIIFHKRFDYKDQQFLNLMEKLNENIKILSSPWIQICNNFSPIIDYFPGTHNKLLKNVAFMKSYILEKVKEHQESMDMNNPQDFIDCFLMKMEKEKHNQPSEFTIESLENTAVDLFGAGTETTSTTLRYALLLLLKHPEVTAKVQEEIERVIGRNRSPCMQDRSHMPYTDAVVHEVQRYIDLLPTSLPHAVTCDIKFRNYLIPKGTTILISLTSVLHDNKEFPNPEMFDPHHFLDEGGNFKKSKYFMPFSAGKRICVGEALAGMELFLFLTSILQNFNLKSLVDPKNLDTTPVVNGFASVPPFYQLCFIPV
Sequence of Cytochrome P450 2C19 (P33261 whole entry): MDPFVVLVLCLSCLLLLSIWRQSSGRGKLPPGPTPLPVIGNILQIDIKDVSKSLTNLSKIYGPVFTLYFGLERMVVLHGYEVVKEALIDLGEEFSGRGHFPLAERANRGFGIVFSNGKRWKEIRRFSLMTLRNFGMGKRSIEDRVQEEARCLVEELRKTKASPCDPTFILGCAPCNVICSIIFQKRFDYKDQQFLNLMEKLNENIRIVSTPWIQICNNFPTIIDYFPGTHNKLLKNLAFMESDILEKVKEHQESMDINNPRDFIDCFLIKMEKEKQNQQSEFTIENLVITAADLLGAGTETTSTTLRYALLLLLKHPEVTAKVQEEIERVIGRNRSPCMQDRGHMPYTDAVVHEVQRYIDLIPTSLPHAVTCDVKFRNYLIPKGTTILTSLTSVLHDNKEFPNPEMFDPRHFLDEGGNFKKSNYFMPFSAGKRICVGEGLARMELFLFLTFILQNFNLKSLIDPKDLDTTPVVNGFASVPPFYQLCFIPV

How did the IC50 [1] turn out when `COc1cc2oc(-c3ccc(O)cc3)cc(=O)c2c(OC)c1O` was run?
The IC50 was 18.2 µM (active).

Which AC50 [2] does the source give for `COc1ccc(NC(=O)CN(C)S(=O)(=O)c2ccc(Cl)cc2)c([N+](=O)[O-])c1` here?
The AC50 was 1.78 µM (inconclusive).

For `CCOc1ccc(N(CC(=O)NCC2CCCO2)C(=O)CCC(=O)Nc2nccs2)cc1` (configuration not stated), which IC50 [3] is on record?
The IC50 was > 47.1 µM (inactive).

And the EC50 [4]?
Its EC50 is > 53 µM (inactive).

`CC1(C)OC(=O)C(/C=N/c2cccc(O)c2)=C(O)O1` was tested. Which AC50 [2] did it give?
Its AC50 is 31.6 µM (inconclusive).

For `COc1ccc(-c2cc(C(=O)O)nc3ccc4ccccc4c23)cc1OC`, which IC50 [3] is on record?
Its IC50 is > 47.1 µM (inactive).

And the EC50 [4]?
The EC50 was > 53 µM (inactive).

Which IC50 [1] does the source give for `Cc1nc2ccccc2nc1N/N=C/c1ccc(O)cc1` here?
Its IC50 is 29.2 µM (active).

What does the source list for `Cc1ccc(-c2noc(-c3cc4ccccc4oc3=O)n2)cc1`?
AC50 [2]: 3.55 µM (inconclusive); AC50 [5]: 6.31 µM (inconclusive)

Which AC50 [6] does the source give for `O=C(NC(C(=O)c1ccccc1)n1cnccc1=O)c1ccccc1` (configuration not stated) here?
The AC50 was 2.82 µM (inconclusive).

And the AC50 [2]?
The AC50 was 14.1 µM (inconclusive).

And the AC50 [5]?
The AC50 was 8.91 µM (inconclusive).

Which AC50 [7] does the source give for `CCCCCCCCc1c(O)nc(-n2[nH]c(C)c(CCO)c2=O)[nH]c1=O` here?
Its AC50 is 47.4 µM (active).

And the EC50 [8]?
The EC50 was 96.8 µM (active).

With `c1ccc(-c2ccccc2OCCN2CCOCC2)cc1` as the compound, how does the IC50 [1] read?
Its IC50 is 111 µM (active).

Which results are given for `Cc1sc2ncnc(Sc3ccccc3C(=O)Nc3ccc(C#N)cc3)c2c1C`?
IC50 [3]: > 47.1 µM (inactive); EC50 [4]: > 53 µM (inactive)

Which IC50 [3] does the source give for `O=C(CSCc1ccccc1)Nc1cc([N+](=O)[O-])ccc1F` here?
The IC50 was > 47.1 µM (inactive).

And the EC50 [4]?
The EC50 was > 53 µM (inactive).

How did the IC50 [1] turn out when `COC(=O)c1ccc(CNC(=O)COC(=O)/C=C/c2ccc(O)c(OC)c2)cc1` was run?
Its IC50 is 44.4 µM (active).

Which IC50 [1] does the source give for `CC1CN(CCCCN2C(=O)c3ccccc3C2=O)CC(C)O1` (configuration not stated) here?
Its IC50 is 125 µM (active).
